Here are results for 15 compounds from patent US20250099482A1, “TIP60 NEURO-EPIGENETIC MODULATORS” (Drexel University, priority 2023, published 2025).

Assay [1] has as its system Drosophila Tip60 knockdown model. The experiment in a line: In vivo larval locomotor speed assay in Tip60-RNAi knockdown model. Conditions: Tip60-RNAi larvae, compound in fly food, vs DMSO vehicle; for rescue of locomotor ability (larval speed): 10 nM to 100 μM.
The target of another assay is T1, Tip60 (Homo sapiens, UniProt Q92993).
T1 construct: purchased Active Motif 81975
The assay can be described thus: In vitro histone acetylation activity assay (Tip60). In kind it is biochemical. Conditions: for effect on Tip60's HAT activity (Histone H4 acetylation, fluorescence): 20 μM compound, vs Tip60+DMSO. The method, then:
HAT assays were performed according to manufacturer's instructions in HAT Assay Kit (Active Motif 56100). Briefly, 375 ng Tip60 protein (Active motif: 81975) was incubated with 50 μM Histone H4 peptide, 50 μM Acetyl-CoA and indicated drug concentrations for 30 minutes at room temperature. After stopping the reaction and developing free sulfhydryl groups, […] was recorded at excitation 360-390 nm and emission 460-490 nm using Glomax fluorescence microplate reader. Specific enzyme activity (pmol/min/μg) was calculated by 1. Subtracting background fluorescence from that of assay samples to obtain arbitrary fluorescence units (AFU); and (2) Dividing the difference by the incubation time to obtain AFU/minute. 3. Dividing the AFU/minute by the slope of standard curve in AFU/pmol to obtain the rate in pmol/minute. 4. Dividing pmol/min by the amount of enzyme used to obtain final readings in pmol/minute/μg.

Another assay concerns the target T2, GST-Tip60 protein (Homo sapiens, UniProt Q92993).
T2 construct: purchased Abcam ab2686960
The assay can be described thus: In vitro surface plasma resonance (SPR) Tip60-compound binding. Conditions: for Corrected Response: DMSO corrected. As to the method: SPR protein-compound binding interactions were analyzed on Biacore 3000 biosensor (Global Cytiva Lifesciences) at 25° C. PBS-P (10 mM Phosphate, 150 mM NaCl, pH 7.4, 0.005% P-20) was used as the running buffer and a HAT-optimized binding buffer (50 mM HEPES, pH 7.4, 500 mM NaCl, 0.05% [v/v] Tween 20, 5 mM DTT, 10% [w/v] glycerol, 2% [v/v] DMSO) was used. A CM5 sensor chip was docked and derivatized by amine coupling to capture anti-GST antibody using freshly prepared 1:1 50 mM NHS (N-hydroxysuccinamide): 200 mM EDC (1-ethyl-3-(3-(dimethylamino) propyl) carbodiimide) followed by immobilization of GST-Tip60 protein (Abcam: ab2686960). Direct binding was determined by injecting ligands in duplicates at concentrations spanning 0.0078 μM to 50 μM with running buffer injections in between. DMSO corrections were performed as described previously. The corrected responses were transformed into % bound sites and plotted against the compound concentration. The concentration of Tip60 on the surface was estimated using [Tip60]=response (captured RU)/100*MW. To plot the % bound isotherm as a function of concentration, it is assumed that binding is 1:1 and the following equation is used: % A bound to B is 100AB/Bt=[Kd+At+Bt-SQRT((Kd+At+Bt)2−4*At*Bt)]/(2*Bt) where A=C and B=Tip60.

Structures are written as SMILES. pKd: −log10 of the molar value.

T1 sequence (Q92993 whole entry): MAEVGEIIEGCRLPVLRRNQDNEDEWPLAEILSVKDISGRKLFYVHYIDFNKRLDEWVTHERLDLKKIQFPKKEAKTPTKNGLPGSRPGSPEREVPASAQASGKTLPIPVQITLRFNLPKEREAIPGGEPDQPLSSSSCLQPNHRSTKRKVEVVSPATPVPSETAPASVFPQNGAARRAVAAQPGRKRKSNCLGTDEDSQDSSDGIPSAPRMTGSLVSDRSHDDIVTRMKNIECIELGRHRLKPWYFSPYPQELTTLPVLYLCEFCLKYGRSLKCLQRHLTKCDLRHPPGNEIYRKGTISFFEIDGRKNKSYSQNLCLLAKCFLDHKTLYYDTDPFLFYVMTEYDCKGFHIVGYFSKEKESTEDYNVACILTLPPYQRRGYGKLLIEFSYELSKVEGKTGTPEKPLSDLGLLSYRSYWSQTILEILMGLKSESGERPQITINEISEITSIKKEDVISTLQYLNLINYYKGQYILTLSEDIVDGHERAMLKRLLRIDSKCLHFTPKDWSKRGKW
T2 sequence (Q92993 whole entry): as above

In the case of `O=C(Nc1ccc(Cl)c(C(F)(F)F)c1)c1ccccc1OC[C@@H]1CCCO1` [Compound C2, (S)-N-(4-chloro-3-(trifluoromethyl)phenyl)-2-((tetrahydrofuran-2-yl)methoxy)benzamide], in assay [1], the “rescue of locomotor defects (larval speed), performance as compared to CTB” value (shortened to “rescue of locomotor defects … compared to CTB”) is reported as “highest performers”.
For `O=C(NCc1ccccc1Cn1cncn1)c1cn(Cc2ccccc2)c2ccccc12` [Compound P11, N-(2-((1H-1,2,4-triazol-1-yl)methyl)benzyl)-1-benzyl-1H-indole-3-carboxamide], the “effect on Tip60's HAT activity (Histone H4 acetylation, fluorescence)” value on Tip60 is reported as “enhanced Tip60's HAT activity”.
With `O=C(Nc1ccc(Cl)c(C(F)(F)F)c1)c1ccccc1OC[C@@H]1CCCS1(=O)=O` [Compound C7, (S)-N-(4-chloro-3-(trifluoromethyl)phenyl)-2-((1,1-dioxidotetrahydrothiophen-2-yl)methoxy)benzamide], the “rescue of locomotor defects … compared to CTB” value in assay [1] was “low-performing compounds”.
As to `COc1ccc(NCc2c(OCc3ccc(F)cc3)ccc3ccccc23)cc1Cl` [Compound P9, 3-chloro-N-((2-((4-fluorobenzyl)oxy)naphthalen-1-yl)methyl)-4-methoxyaniline], at Tip60, the “effect on Tip60's HAT activity (Histone H4 acetylation, fluorescence)” value is given as “enhanced Tip60's HAT activity”.
As for `CCOCC[C@@H](O)COc1ccccc1C(=O)Nc1ccc(Cl)c(C(F)(F)F)c1` [Compound C10, (R)-N-(4-chloro-3-(trifluoromethyl)phenyl)-2-(4-ethoxy-2-hydroxybutoxy)benzamide], the “rescue of locomotor defects … compared to CTB” value in assay [1] is “low-performing compounds”.
Still for that read-out and setting: for `CCOc1cccc(OCCN(C)C)c1C(=O)Nc1ccc(Cl)c(C(F)(F)F)c1` [Compound C5, N-(4-chloro-3-(trifluoromethyl)phenyl)-2-(2-(dimethylamino)ethoxy)-6-ethoxybenzamide] the value was “highest performers”.
Same read-out and setting: for `O=C(Nc1ccc(Cl)c(C(F)(F)F)c1)c1ccccc1OC[C@H]1CCCS1(=O)=O` [Compound C8, (R)-N-(4-chloro-3-(trifluoromethyl)phenyl)-2-((1,1-dioxidotetrahydrothiophen-2-yl)methoxy)benzamide] the value was “highest performers”; for `O=C(Nc1ccc(Cl)c(C(F)(F)F)c1)c1ccccc1OCC(=O)N1CCOCC1` [Compound C4, N-(4-chloro-3-(trifluoromethyl)phenyl)-2-(2-morpholino-2-oxoethoxy)benzamide], “did not show an effect even at high concentrations”.
Still for that read-out and setting: for `CCOCC[C@H](O)COc1ccccc1C(=O)Nc1ccc(Cl)c(C(F)(F)F)c1` [Compound C9, (S)-N-(4-chloro-3-(trifluoromethyl)phenyl)-2-(4-ethoxy-2-hydroxybutoxy)benzamide] the value was “low-performing compounds”.
Usually pKd stands for the negative decadic logarithm of the Kd, by convention in mol/L. Turning to `CCOc1ccccc1C(=O)Nc1ccc(Cl)c(C(F)(F)F)c1` [CTB, N-(4-chloro-3-(trifluoromethyl)phenyl)-2-ethoxybenzamide], the “% Bound sites” value at GST-Tip60 protein (0.0078 μM) turned out to be 0.05241%; on GST-Tip60 protein (0.023 μM), 0.04999%; at GST-Tip60 protein (0.07 μM), 0.04921%; on GST-Tip60 protein (0.21 μM), 0.04955%; at GST-Tip60 protein (0.63 μM) it was 0.0526%; on GST-Tip60 protein (1.85 μM), 0.05923%. Moreover, the “% Bound sites” value is 0.07928% at GST-Tip60 protein (5.56 μM), 0.1511% at GST-Tip60 protein (17 μM) and 0.4056% on GST-Tip60 protein (50 μM). The Subtracted response at GST-Tip60 protein (0.0078 μM) stood at 8.34; at GST-Tip60 protein (0.023 μM), 7.955; on GST-Tip60 protein (0.07 μM), 7.83; on GST-Tip60 protein (0.21 μM) it was 7.885; at GST-Tip60 protein (0.63 μM) it was 8.37; on GST-Tip60 protein (1.85 μM), 9.425. Also, the Subtracted response on GST-Tip60 protein (5.56 μM) was 12.615; on GST-Tip60 protein (17 μM), 24.05; on GST-Tip60 protein (50 μM), 64.54. Also, the “Corrected Response” value at GST-Tip60 protein (0.0078 μM) was 0.1326; at GST-Tip60 protein (0.023 μM), 0.1265; at GST-Tip60 protein (0.07 μM), 0.1245; on GST-Tip60 protein (0.21 μM) it was 0.1254; at GST-Tip60 protein (0.63 μM), 0.1331; on GST-Tip60 protein (1.85 μM) it was 0.1499. Also, the “Corrected Response” value at GST-Tip60 protein (5.56 μM) came out at 0.2006; on GST-Tip60 protein (17 μM) it was 0.3824; at GST-Tip60 protein (50 μM), 1.026. For the same compound, the pKd at GST-Tip60 protein (SPR, 25° C., read-out: KD (dissociation constant)) was 4.54. The “rescue of locomotor ability (larval speed)” value in assay [1] is recorded as “significant rescue for locomotor ability”. Besides, at Tip60 (CTB, low micromolar concentrations), the “effect on Tip60's HAT activity” value was “directly enhance Tip60's HAT activity”.
For `CC(C)Oc1ccccc1C(=O)Nc1ccc(Cl)c(C(F)(F)F)c1` [Compound C6, N-(4-chloro-3-(trifluoromethyl)phenyl)-2-isopropoxybenzamide], the “rescue of locomotor defects … compared to CTB” value in assay [1] is listed as “low-performing compounds”.
On the same count and under the same terms, for `O=C(Nc1ccc(Cl)c(C(F)(F)F)c1)c1ccccc1OC[C@H]1CCCO1` [Compound C3, (R)-N-(4-chloro-3-(trifluoromethyl)phenyl)-2-((tetrahydrofuran-2-yl)methoxy)benzamide] the value was “low-performing compounds”.
For `Cc1cc(-c2ccccc2)cc(C(=O)NNS(=O)(=O)c2ccccc2)c1F` [WM8014, N′-(4-fluoro-5-methyl-[1,1′-bipheny1]-3-carbonyl)benzenesulfonohydrazide], the Subtracted response on GST-Tip60 protein (0.0078 μM) stood at 8.58; on GST-Tip60 protein (0.023 μM) it was 7.78; at GST-Tip60 protein (0.07 μM), 7.42; at GST-Tip60 protein (0.21 μM) it was 7.24; on GST-Tip60 protein (0.63 μM), 7.51; on GST-Tip60 protein (1.85 μM), 8.17. For the same compound, the Subtracted response is 11.34 at GST-Tip60 protein (5.56 μM), 22.255 at GST-Tip60 protein (17 μM) and 61.705 at GST-Tip60 protein (50 μM). In addition, the “Corrected Response” value on GST-Tip60 protein (0.0078 μM) turned out to be 0.127; on GST-Tip60 protein (0.023 μM), 0.1151; at GST-Tip60 protein (0.07 μM), 0.1098; at GST-Tip60 protein (0.21 μM) it was 0.1072; at GST-Tip60 protein (0.63 μM), 0.1111; on GST-Tip60 protein (1.85 μM), 0.1209. The entries for the “Corrected Response” value at GST-Tip60 protein (5.56 μM), at GST-Tip60 protein (17 μM) and on GST-Tip60 protein (50 μM) were 0.1678, 0.3294 and 0.9132, respectively.
Take `CCCCCCCCCCCCCCCc1cccc(OCC)c1C(=O)Nc1ccc(Cl)c(C(F)(F)F)c1` [CTPB, N-(4-chloro-3-(trifluoromethyl)phenyl)-2-ethoxy-6-pentadecylbenzamide]: the Subtracted response at GST-Tip60 protein (0.0078 μM) was 8.525; at GST-Tip60 protein (0.023 μM), 8.62; at GST-Tip60 protein (0.07 μM), 8.545; on GST-Tip60 protein (0.21 μM), 8.575; on GST-Tip60 protein (0.63 μM) it was 8.99; on GST-Tip60 protein (1.85 μM), 10.085. The Subtracted response on GST-Tip60 protein (5.56 μM) worked out at 13.355; at GST-Tip60 protein (17 μM), 25.005; on GST-Tip60 protein (50 μM) it was 66.335. Moreover, the “Corrected Response” value at GST-Tip60 protein (0.0078 μM) is 0.1381; at GST-Tip60 protein (0.023 μM) it was 0.1396; on GST-Tip60 protein (0.07 μM), 0.1384; on GST-Tip60 protein (0.21 μM) it was 0.1389; on GST-Tip60 protein (0.63 μM) it was 0.1456; on GST-Tip60 protein (1.85 μM), 0.1634. Further, the “Corrected Response” value on GST-Tip60 protein (5.56 μM) is on record as 0.2164; at GST-Tip60 protein (17 μM) it was 0.4051; on GST-Tip60 protein (50 μM), 1.075. The “rescue of locomotor ability (larval speed)” value in assay [1] is listed as “significant rescue for locomotor ability”.
`CCOc1ccccc1C(=O)Nc1ccc(Cl)c(C(F)(F)F)c1` [Compound C1, N-(4-chloro-3-(trifluoromethyl)phenyl)-2-ethoxybenzamide]: the “rescue of locomotor defects … compared to CTB” value in assay [1] is “low-performing compounds”.
